The text below walks through data of publication PMC10324399, “New Radiolabeled Exendin Analogues Show Reduced Renal Retention” (Molecular Pharmaceutics, 2023).

For data set [1] the following is noted: co-administration; cited from earlier work. The text has this: Several successful strategies to reduce the renal uptake of radiolabeled peptides have been described. […]. […] These two studies evoked the question whether the translation of the methionine–isoleucine linker to exendin-4 could help to reduce the renal uptake of exendin. Based on literature, the additio ...

Data set [2] in a line: Dosimetry: absorbed kidney dose extrapolated to humans (OLINDA/EXM, 80 kg male reference model). Also on record: species or system human. The following applies: radiolabeled tracer (^68Ga or ^177Lu), extrapolated from mice data. The text has this: The mice data were then used to extrapolate the expected absorbed kidney doses per injected activity to humans using the equation:[25],[26] [drawing 1] with [drawing 2] the percentage of the injected activity concentration, [drawing 3] the percentage of the injected activity per organ, m the organ mass, and M the total human or mouse body weight.

Data set [3] can be described thus: Dosimetry: kidney self-dose in mice (OLINDA/EXM, 25 g RADAR model). Set-up: species or system mouse. The protocol:
The kidney self-dose was calculated based on the activity distribution of the tracer in the kidneys. Time-integrated activity coefficients (MBq-h/MBq) were calculated using mono-exponential curve-fitting between the timepoints.

Data set [4] in a line: Serum stability of 68Ga- and 177Lu-labeled exendin-4 analogues in human serum. The settings on record: ^177Lu-labeled peptide, human serum (1:10), 37 °C, after 24 h, acetonitrile precipitation, RP-HPLC. The class given is in vitro ADME.
Protocol: Serum stability was analyzed as described in the Supporting Information.
The radiolabeled compounds were incubated in
10 human serum (1:10) at 37°C and samples were taken after 1 and 2 hour incubation for the 68Ga-labeled
12 Supernatant was obtained by precipitating the serum proteins by adding a 1:1 (v/v) volume of
13 acetonitrile, followed by centrifugation for 5 min at 3220xg. Subsequently, the supernatant was
14 analyzed using RP-HPLC. RP-HPLC was performed as described in the main text.

Turning to `NCCCC[C@H](N)C(=O)O` [lysine], in data set [1], the “increase in renal uptake of radiolabeled exendin” value is recorded as 6%.

In the case of “Lys^40[Mep((S-)DOTA-Met-Ile-Mal-)]exendin-4 [DOTA-MI-exendin-4]”, in data set [2], the “estimated absorbed kidney dose per injected activity, humans” value was 0.89 mSv/MBq. Also, the “reduction of estimated absorbed kidney dose vs reference without MI linker” value in data set [3] (in both mice and humans) was 57%. In data set [3] (radiolabeled tracer (^68Ga or ^177Lu), from biodistribution in INS-1 tumor-bearing mice, OLINDA/EXM 2.1, 25 g RADAR model), the “estimated absorbed kidney dose per injected activity, mice” value is 1974 mSv/MBq. Besides, in data set [4], the serum stability is greater than 80% after 24 h.
